ChEMBL document CHEMBL1201862, “PubChem BioAssay data set” (2004)
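A five-concentration, 48-hour dose response in 96-well plates underlies each endpoint, interpolated linearly between surrounding concentrations. The concentration for 50% growth inhibition is given as GI50.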 The source made the active and inactive calls. Rule as the data show it: active = GI50 up to about 1.1 µM and inactive = higher.

What was measured:
Experiment in all cases: NCI-60 cell line screen, 48 h
DU-145 = tested on: DU-145
RPMI-8226 = tested on: RPMI-8226
NCI-H460 = tested on: NCI-H460
Malme-3M = tested on: Malme-3M
786-0 = tested on: 786-0
NCI-H522 = tested on: NCI-H522
SNB-19 = tested on: SNB-19
A498 = tested on: A498
BT-549 = tested on: BT-549
NCI-H23 = tested on: NCI-H23
TK-10 = tested on: TK-10
SF-268 = tested on: SF-268
HCT-15 = tested on: HCT-15
OVCAR-8 = tested on: OVCAR-8
HCT-116 = tested on: HCT-116
HL-60 = tested on: HL-60
EKVX = tested on: EKVX
T47D = tested on: T47D
COLO 205 = tested on: COLO 205
ACHN = tested on: ACHN
M14 = tested on: M14
MOLT-4 = tested on: MOLT-4
MDA-MB-435 = tested on: MDA-MB-435
NCI/ADR-RES = tested on: NCI/ADR-RES
LOX IMVI = tested on: LOX IMVI
HT-29 = tested on: HT-29
HOP-62 = tested on: HOP-62
MDA-N = tested on: MDA-N
MCF7 = tested on: MCF7
OVCAR-4 = tested on: OVCAR-4
OVCAR-5 = tested on: OVCAR-5
IGROV-1 = tested on: IGROV-1
SNB-75 = tested on: SNB-75
SW-620 = tested on: SW-620
CAKI-1 = tested on: CAKI-1
PC-3 = tested on: PC-3
CCRF-CEM = tested on: CCRF-CEM
HCC 2998 = tested on: HCC 2998
UACC-257 = tested on: UACC-257
Hs-578T = tested on: Hs-578T
SK-MEL-28 = tested on: SK-MEL-28
SK-MEL-2 = tested on: SK-MEL-2
OVCAR-3 = tested on: OVCAR-3
UACC-62 = tested on: UACC-62
UO-31 = tested on: UO-31
KM12 = tested on: KM12
SF-539 = tested on: SF-539
SK-OV-3 = tested on: SK-OV-3
SF-295 = tested on: SF-295
SN12C = tested on: SN12C
RXF 393 = tested on: RXF 393
SK-MEL-5 = tested on: SK-MEL-5
A549 = tested on: A549
U-251 = tested on: U-251
K562 = tested on: K562
MDA-MB-231 = tested on: MDA-MB-231
SR = tested on: SR
NCI-H226 = tested on: NCI-H226
HOP-92 = tested on: HOP-92

CCOC(=O)Cc1c(C(=O)OCC)[n+]([O-])c2cc(Cl)c(Cl)cc2[n+]1[O-]
GI50 (DU-145): 1.69 µM (inactive) | GI50 (RPMI-8226): 0.431 µM (active) | GI50 (NCI-H460): 1.45 µM (inactive) | GI50 (Malme-3M): 1.4 µM (inactive) | GI50 (786-0): 1.54 µM (inactive) | GI50 (NCI-H522): 1.84 µM (inactive) | GI50 (SNB-19): 3.5 µM (inactive) | GI50 (A498): 2.31 µM (inactive) | GI50 (BT-549): 2.45 µM (inactive) | GI50 (NCI-H23): 2.18 µM (inactive) | GI50 (TK-10): 1.28 µM (inactive) | GI50 (SF-268): 2.44 µM (inactive) | GI50 (HCT-15): 1.42 µM | GI50 (OVCAR-8): 2.34 µM (inactive) | GI50 (HCT-116): 1.77 µM (inactive) | GI50 (HL-60): 2.81 µM (inactive) | GI50 (EKVX): 3.37 µM (inactive) | GI50 (T47D): 0.982 µM (active) | GI50 (COLO 205): 1.73 µM (inactive) | GI50 (ACHN): 1.76 µM (inactive) | GI50 (M14): 2.29 µM (inactive) | GI50 (MOLT-4): 1.56 µM (inactive) | GI50 (MDA-MB-435): 2.77 µM (inactive) | GI50 (NCI/ADR-RES): 2.78 µM (inactive) | GI50 (LOX IMVI): 2 µM (inactive) | GI50 (HT-29): 1.94 µM (inactive) | GI50 (HOP-62): 1.95 µM (inactive) | GI50 (MDA-N): 2.62 µM (inactive) | GI50 (MCF7): 1.57 µM (inactive) | GI50 (OVCAR-4): 1.89 µM (inactive) | GI50 (OVCAR-5): 2.58 µM (inactive) | GI50 (IGROV-1): 1.01 µM (active) | GI50 (SNB-75): 1.53 µM (inactive) | GI50 (SW-620): 1.52 µM (inactive) | GI50 (CAKI-1): 2.97 µM (inactive) | GI50 (PC-3): 2.1 µM (inactive) | GI50 (CCRF-CEM): 3.13 µM (inactive) | GI50 (HCC 2998): 1.99 µM (inactive) | GI50 (UACC-257): 2.22 µM (inactive) | GI50 (Hs-578T): 2.27 µM (inactive) | GI50 (SK-MEL-28): 4.68 µM (inactive) | GI50 (SK-MEL-2): 2.59 µM (inactive) | GI50 (OVCAR-3): 1.87 µM (inactive) | GI50 (UACC-62): 2.18 µM (inactive) | GI50 (UO-31): 1.77 µM (inactive) | GI50 (KM12): 1.32 µM (inactive) | GI50 (SF-539): 2.08 µM (inactive) | GI50 (SK-OV-3): 3.77 µM (inactive) | GI50 (SF-295): 3.66 µM (inactive) | GI50 (SN12C): 2.49 µM (inactive) | GI50 (RXF 393): 2.12 µM (inactive) | GI50 (SK-MEL-5): 1.47 µM (inactive) | GI50 (A549): 1.76 µM (inactive) | GI50 (U-251): 2.96 µM (inactive) | GI50 (K562): 2.62 µM (inactive) | GI50 (MDA-MB-231): 2.69 µM (inactive) | GI50 (SR): 0.336 µM (active)

Cc1cc(C)c2c(=O)n(CN3CCC(C#N)(c4ccccc4)CC3)sc2n1
GI50 (DU-145): > 100 µM (inactive) | GI50 (NCI-H460): 40.4 µM (inactive) | GI50 (Malme-3M): 22.5 µM (inactive) | GI50 (786-0): 22.7 µM (inactive) | GI50 (NCI-H522): 14.3 µM (inactive) | GI50 (SNB-19): > 100 µM (inactive) | GI50 (A498): > 100 µM (inactive) | GI50 (BT-549): 91.2 µM (inactive) | GI50 (NCI-H23): 34.4 µM (inactive) | GI50 (TK-10): 25.6 µM (inactive) | GI50 (SF-268): 40 µM (inactive) | GI50 (HCT-15): 39.1 µM | GI50 (OVCAR-8): 28.6 µM (inactive) | GI50 (HCT-116): > 100 µM (inactive) | GI50 (HL-60): 18.5 µM (inactive) | GI50 (EKVX): 52.7 µM (inactive) | GI50 (T47D): > 100 µM (inactive) | GI50 (COLO 205): 30.8 µM (inactive) | GI50 (ACHN): 21.7 µM (inactive) | GI50 (M14): 50.2 µM (inactive) | GI50 (MOLT-4): 49.4 µM (inactive) | GI50 (MDA-MB-435): 24.4 µM (inactive) | GI50 (NCI/ADR-RES): 51.1 µM (inactive) | GI50 (LOX IMVI): 26.2 µM (inactive) | GI50 (HT-29): 39.9 µM (inactive) | GI50 (NCI-H226): > 100 µM (inactive) | GI50 (HOP-62): 44.1 µM (inactive) | GI50 (MDA-N): 29.6 µM (inactive) | GI50 (MCF7): 62.5 µM (inactive) | GI50 (HOP-92): 88.1 µM (inactive) | GI50 (OVCAR-4): 30.3 µM (inactive) | GI50 (OVCAR-5): 30.9 µM (inactive) | GI50 (IGROV-1): > 100 µM (inactive) | GI50 (SNB-75): 37.7 µM (inactive) | GI50 (SW-620): 24.4 µM (inactive) | GI50 (CAKI-1): 39.3 µM (inactive) | GI50 (PC-3): 76.7 µM (inactive) | GI50 (CCRF-CEM): 20.3 µM (inactive) | GI50 (UACC-257): 22.2 µM (inactive) | GI50 (Hs-578T): 47.8 µM (inactive) | GI50 (SK-MEL-28): 42.5 µM (inactive) | GI50 (SK-MEL-2): > 100 µM (inactive) | GI50 (OVCAR-3): 83 µM (inactive) | GI50 (UACC-62): > 100 µM (inactive) | GI50 (UO-31): 17.8 µM (inactive) | GI50 (KM12): > 100 µM (inactive) | GI50 (SF-539): 31.3 µM (inactive) | GI50 (SK-OV-3): > 100 µM (inactive) | GI50 (SF-295): > 100 µM (inactive) | GI50 (SN12C): > 100 µM (inactive) | GI50 (RXF 393): 26.3 µM (inactive) | GI50 (SK-MEL-5): 72.1 µM (inactive) | GI50 (A549): 97.9 µM (inactive) | GI50 (U-251): > 100 µM (inactive) | GI50 (K562): 54 µM (inactive) | GI50 (MDA-MB-231): > 100 µM (inactive) | GI50 (SR): 49.9 µM (inactive)

COc1ccc2c(c1)c1nn(CCN(C)C)c3ccc4c(=O)n(CCN(C)C)c(=O)n2c4c13
GI50 (DU-145): 0.0135 µM (active) | GI50 (RPMI-8226): < 0.01 µM (active) | GI50 (NCI-H460): < 0.01 µM (active) | GI50 (Malme-3M): 0.0904 µM (active) | GI50 (786-0): < 0.01 µM (active) | GI50 (NCI-H522): < 0.01 µM (active) | GI50 (SNB-19): 0.0224 µM (active) | GI50 (A498): 0.114 µM (active) | GI50 (BT-549): 0.946 µM (active) | GI50 (NCI-H23): < 0.0241 µM (active) | GI50 (TK-10): 0.0649 µM (active) | GI50 (SF-268): < 0.01 µM (active) | GI50 (HCT-15): < 0.01 µM | GI50 (OVCAR-8): < 0.01 µM (active) | GI50 (HCT-116): < 0.01 µM (active) | GI50 (HL-60): 0.042 µM (active) | GI50 (EKVX): 0.0746 µM (active) | GI50 (T47D): 0.144 µM (active) | GI50 (COLO 205): < 0.0143 µM (active) | GI50 (ACHN): < 0.01 µM (active) | GI50 (M14): 0.105 µM (active) | GI50 (MOLT-4): < 0.01 µM (active) | GI50 (MDA-MB-435): < 0.019 µM (active) | GI50 (NCI/ADR-RES): 0.0148 µM (active) | GI50 (LOX IMVI): 0.0171 µM (active) | GI50 (HT-29): < 0.01 µM (active) | GI50 (NCI-H226): 0.125 µM (active) | GI50 (HOP-62): < 0.01 µM (active) | GI50 (MDA-N): < 0.0325 µM (active) | GI50 (MCF7): < 0.0158 µM (active) | GI50 (OVCAR-4): < 0.01 µM (active) | GI50 (OVCAR-5): < 0.0223 µM (active) | GI50 (IGROV-1): < 0.01 µM (active) | GI50 (SNB-75): < 0.01 µM (active) | GI50 (SW-620): < 0.01 µM (active) | GI50 (CAKI-1): 0.0682 µM (active) | GI50 (PC-3): 0.0103 µM (active) | GI50 (CCRF-CEM): < 0.01 µM (active) | GI50 (HCC 2998): < 0.01 µM (active) | GI50 (UACC-257): 0.208 µM (active) | GI50 (Hs-578T): 0.0463 µM (active) | GI50 (SK-MEL-28): 0.22 µM (active) | GI50 (SK-MEL-2): 0.0323 µM (active) | GI50 (OVCAR-3): 0.018 µM (active) | GI50 (UACC-62): 0.116 µM (active) | GI50 (UO-31): 0.0255 µM (active) | GI50 (KM12): < 0.0142 µM (active) | GI50 (SF-539): 0.169 µM (active) | GI50 (SK-OV-3): < 0.0157 µM (active) | GI50 (SF-295): < 0.01 µM (active) | GI50 (SN12C): < 0.0234 µM (active) | GI50 (RXF 393): 0.133 µM (active) | GI50 (SK-MEL-5): 0.198 µM (active) | GI50 (A549): < 0.01 µM (active) | GI50 (U-251): < 0.01 µM (active) | GI50 (K562): < 0.019 µM (active) | GI50 (MDA-MB-231): 0.0211 µM (active) | GI50 (SR): < 0.01 µM (active)
